Key:
[1] = test system: encapsulated islets; assay type: cell-based; settings: hybrid alginate capsules with 2 mg/ml dexamethasone or 1 mg/ml curcumin, 4 days co-culture, FIG. 5
Protocol: (§1) RAW 264.7 macrophages were cultured in RPMI-1640 medium supplemented with 10% FBS, 100 units/ml penicillin and 100 μg/ml streptomycin (Invitrogen). The cells were sub-cultured every 2-3 days. 0.2 million macrophages in 3 ml of fresh culture medium were seeded into each well of a six-well tissue-culture treated polystyrene plate and allowed to adhere to the plate surface over night. The culture medium was removed and encapsulated islets were added in 3 ml of fresh medium to each well with adherent macrophages. Co-culturing of encapsulated islets with macrophages was maintained for four days. Afterwards, supernatant samples were collected and frozen at −20° C. for future insulin analysis with an insulin ELISA kit (ALPCO diagnostics). Encapsulated islets were collected into new plates. Both encapsulated islets and remaining adherent macrophages were washed in HEPES buffer and subjected to live-dead fluorescent staining (Invitrogen) for viability assessment.
(§2) An in vitro experiment was designed to test whether the presence of immune cells affects insulin secretion by islets. Hybrid alginate capsules containing islet cells and 2 mg/ml of dexamethasone or 1 mg/ml of curcumin were fabricated. Islet cells were encapsulated alone as a positive control. As a negative control, encapsulated islets were co-cultured with a macrophage cell line adherent to the plate's bottom. […]

[2] = test system: C57/B6 mice with streptozotocin (STZ)-induced diabetes; test: Transplantation of encapsulated rat islets into STZ-induced diabetic mice, daily blood glucose monitoring; assay type: in vivo; settings: daily blood glucose over 2 months, marginal mass of islets, intraperitoneal, n=6-7
Protocol: Alginate with high gluronic acid content SLG20 (Novamatrix, FMC Polymer, Drammen, Norway) was dissolved in sterile 0.9% (w/v) NaCl to give an alginate solution of 1.5% (w/v). To prepare hybrid drug-islet capsule, 1.5% (w/v) alginate was mixed with curcumin (Sigma Aldrich) at 0.3-1.0 mg/ml or with dexamethasone (Sigma Aldrich) at 1-2 mg/ml and stirred for 3-4 days to ensure that the drug is homogenously dispersed. During this mixing period, curcumin-alginate mixture was wrapped in aluminium foil to avoid light exposure which might oxidize this drug. One day after islet isolation, islets were washed twice with Ca-free Krebs and mixed with the alginate suspension with or without dispersed drug at a pre-cross-linking islet density of approximately 750-1000 islets/ml. […]
Male Sprague—Dawley rats, 200-250 g, also obtained from Charles River Laboratories, were used as islet donors. […] The mice were observed daily till after the final STZ injection when they are weighed and their blood glucose levels determined. Mice were confirmed diabetic if their non-fasted blood glucose level rose above 300 mg/dL for two consecutive daily readings. […]
Xenogeneic transplants of encapsulated rat islets to diabetic mice recipients were performed to examine the reversibility of diabetes. […] Shortly thereafter, islet-containing capsules were sampled in quadruplicate, the total islets number was counted. […]

[3] = test system: RAW 264.7 macrophages; test: Co-culture of macrophages and encapsulated islets: macrophage proliferation; assay type: cell-based; settings: hybrid alginate capsules with 2 mg/ml dexamethasone or 1 mg/ml curcumin, 4 days co-culture
Protocol: as §1, §2

[4] = test system: islet cells in retrieved capsules; test: Insulin secretion from retrieved capsules; assay type: in vivo; settings: 24 hours, FIG. 10
Protocol: Sixty days after transplantation of islet-containing capsules, the mice from example 6 were sacrificed by CO2 asphyxiation. A lapratomy was performed to expose the abdominal cavity and capsules were retrieved by an abdominal lavage with HEPES buffer. The abdominal cavity was examined closely to identify remaining capsules, which if found were gently removed using atraumatic tweezers. The retrieved capsules were subsequently washed several times in HEPES buffer and imaged at 2× magnification using an EVOS brightfield microscope (AMG). Finally, capsules were transferred into a 1.5 ml Eppendorf tube, and frozen at −20° C. for future analysis. Insulin secretion was measured from the retrieved capsules for 24 hours.

[5] = test system: fibrosis on capsules; test: Fibrosis formation on capsules retrieved 60 days after transplantation (observation, DNA fluorescent staining); assay type: in vivo, mice; settings: FIG. 9
Protocol: Sixty days after transplantation of islet-containing capsules, the mice from example 6 were sacrificed by CO2 asphyxiation. A lapratomy was performed to expose the abdominal cavity and capsules were retrieved by an abdominal lavage with HEPES buffer. The abdominal cavity was examined closely to identify remaining capsules, which if found were gently removed using atraumatic tweezers. The retrieved capsules were subsequently washed several times in HEPES buffer and imaged at 2× magnification using an EVOS brightfield microscope (AMG). Finally, capsules were transferred into a 1.5 ml Eppendorf tube, and frozen at −20° C. for future analysis.
50 μl of retrieved capsules (120-150 alginate capsules) were transferred to each well of a 24-well Millicell® cell culture insert (Millipore) using wide-orifice pipette tips (Fisher Scientific, Pittsburgh, Pa., USA). The capsules were incubated at 37° C. for 45 min in 800 μl of 0.001 mg/ml Hoersch 33342 dye (Invitrogen) prepared from stock solution by dilution with HEPES buffer. Afterwards, these capsules were washed four times with HEPES buffer. […] Finally, fluorescent signals from the stained capsules were obtained using a Tecan UV-VIS absorbance plate reader at with the excitation and emission wavelengths of 350 nm and 460 nm respectively.
A rigorous quantification technique was developed to assess fibrosis on capsules via DNA fluorescent staining. […]

COc1cc(/C=C/C(=O)CC(=O)/C=C/c2ccc(O)c(OC)c2)ccc1O [curcumin]
insulin secretion from encapsulated islets co-cultured with macrophages [1]: restored insulin secretion | glycemic control [2]: improved glycemic control | macrophages proliferation [3]: hindered macrophages proliferation | insulin secretion from retrieved capsules [4]: greatly improved insulin secretion | fibrosis by DNA fluorescence of retrieved capsules [5]: reduced fibrosis with statistical significance
